The text below walks through data of patent US12569422B2, “Composition and method of inhibiting cortisone reductase by applying it to the skin” (AMOREPACIFIC CORPORATION, priority 2018, dated 2026).

Type in all cases: cell-based
The target of assay [1] is T1, 11β-hydroxysteroid dehydrogenase type 1 (Homo sapiens, UniProt P28845).
T1 construct: endogenous in cells; host or cells: normal human epidermal keratinocytes (NHEK)
Briefly: Cortisol concentration in cell culture solution of UVB-irradiated, cortisone-treated keratinocytes (ELISA). The note with it: coumestrol 1 μM, 5 μM. The procedure:
(§1) Human keratinocytes (normal human epidermal keratinocytes, NHEK) were cultured in a 6-well plate incubator. Specifically, the normal human epidermal keratinocytes were cultured by replacing it with phosphate-buffered saline (PBS) after 24 hours to irradiate UVB (25 mJ/cm^2) and then, adding cortisone (10 μM) to NHEK culture media having no hydrocortisone. Subsequently, the cell culture solution was collected to measure a cortisol concentration in an ELISA method, and the results are shown in FIG. 1.

A further assay concerns keratin 1 (KRT1). The assay can be described thus: Western blotting of keratinocyte differentiation marker KRT1 in UVB-irradiated keratinocytes. The note with it: human keratinocytes, coumestrol 1 μM, 5 μM, 10 μM, FIG. 2. The procedure:
as §1
(§2) In addition, after separating proteins from the human keratinocytes using a RIPA lysis buffer, protein expression of keratinocyte differentiation markers (KRT1, Filaggrin) was confirmed through western blotting, and the results are shown in FIGS. 2 and 3. Referring to FIGS. 2 and 3, in the wells containing the coumestrol (1 μM, 5 μM, 10 μM), gene expression of the keratinocyte differentiation markers (KRT1, Filaggrin) inhibited by the ultraviolet (UVB) rays was increased in the keratinocytes. In other words, the gene expression of the keratinocyte differentiation markers inhibited by the ultraviolet (UVB) rays in the keratinocytes was restored by the coumestrol, and accordingly, the coumestrol inhibited activity of the cortisone reductase and reduced the cortisol concentration, eventually restoring the gene expression of the keratinocyte differentiation markers.

Another assay has as its system Filaggrin. The assay can be described thus: Western blotting of keratinocyte differentiation marker filaggrin in UVB-irradiated keratinocytes. The note with it: human keratinocytes, coumestrol 1 μM, 5 μM, 10 μM, FIG. 3. The procedure: as §1, §2
In general terms: In western blotting, separated proteins are transferred to a membrane and probed.

T1 sequence (P28845 whole entry): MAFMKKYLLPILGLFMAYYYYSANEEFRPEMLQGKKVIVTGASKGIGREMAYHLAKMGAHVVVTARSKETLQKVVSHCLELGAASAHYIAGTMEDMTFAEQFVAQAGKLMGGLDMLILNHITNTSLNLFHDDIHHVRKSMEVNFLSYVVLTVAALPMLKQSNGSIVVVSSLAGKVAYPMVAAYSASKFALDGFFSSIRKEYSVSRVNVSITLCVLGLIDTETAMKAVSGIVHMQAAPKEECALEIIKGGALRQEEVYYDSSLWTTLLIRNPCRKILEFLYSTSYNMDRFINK

`O=c1oc2cc(O)ccc2c2oc3cc(O)ccc3c12` [coumestrol]: the “cortisol concentration in cell culture solution” value in assay [1] (NHEK, UVB 25 mJ/cm^2, cortisone 10 μM, compared with control before UV irradiation, FIG. 1) was “not significantly increased”. The “activity of 11β-hydroxysteroid dehydrogenase type 1 (cortisone reductase)” value in assay [1] (conclusion from cortisol ELISA in NHEK, 10 μM) is on record as “inhibit activity”. The “expression of keratinocyte differentiation marker KRT1 inhibited by UVB” value with keratin 1 (KRT1) is “increased”. The “expression of keratinocyte differentiation marker Filaggrin inhibited by UVB” value with Filaggrin is “increased”.
